Laboratory results reported in ChEMBL document CHEMBL3994586, “Treatment of estrogen-dependent diseases: Design, synthesis and profiling of a selective 17β-HSD1 inhibitor with sub-nanomolar IC50 for a proof-of-principle study” (Eur J Med Chem, 2017).

Each molecule was assayed against T1, 17-beta-hydroxysteroid dehydrogenase type 1 (Homo sapiens, UniProt P14061) (assay: Inhibition of human placental cytosolic 17beta-HSD1 assessed as reduction in activation of [2,4,6,7-3H]-E1 substrate to E2 after 10 mins in presence of NADH by RP-HPLC method). Conditions: not given.
T1 sequence (P14061 whole entry): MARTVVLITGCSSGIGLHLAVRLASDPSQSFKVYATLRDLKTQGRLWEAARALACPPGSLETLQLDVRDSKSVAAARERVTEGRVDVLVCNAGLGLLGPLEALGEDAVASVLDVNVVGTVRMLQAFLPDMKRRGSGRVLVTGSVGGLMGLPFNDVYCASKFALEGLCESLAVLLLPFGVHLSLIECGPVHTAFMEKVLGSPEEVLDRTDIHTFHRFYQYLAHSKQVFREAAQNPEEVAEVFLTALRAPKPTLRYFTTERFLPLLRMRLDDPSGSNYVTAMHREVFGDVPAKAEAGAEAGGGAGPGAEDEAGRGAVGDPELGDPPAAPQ

Row | Structure (SMILES) | IC50 [nM]
1 | O=C(c1ccc(-c2ccncc2)s1)c1c(F)ccc(O)c1F | 150
2 | O=C(c1ccc(-c2cccnc2)s1)c1c(F)ccc(O)c1F | 27
3 | COc1c(C)cc(-c2ccc(C(=O)c3c(F)ccc(O)c3F)s2)cc1Cl | 0.3

More lines, now with the values ahead:

Row | IC50 [nM] | Structure (SMILES)
4 | 150 | NS(=O)(=O)c1ccc(-c2ccc(C(=O)c3c(F)ccc(O)c3F)s2)cc1
5 | 130 | COc1ccc(-c2ccc(C(=O)c3c(F)ccc(O)c3F)s2)cc1S(=O)(=O)N1CCOCC1

The molecules below were run against T2, 17-beta-hydroxysteroid dehydrogenase type 2 (Homo sapiens, UniProt P37059) (assay: Inhibition of human placental microsomal 17beta-HSD2 using [2,4,6,7-3H]-E2 as substrate after 20 mins in presence of NAD+ by RP-HPLC method). Conditions: not given.
T2 sequence (P37059 whole entry): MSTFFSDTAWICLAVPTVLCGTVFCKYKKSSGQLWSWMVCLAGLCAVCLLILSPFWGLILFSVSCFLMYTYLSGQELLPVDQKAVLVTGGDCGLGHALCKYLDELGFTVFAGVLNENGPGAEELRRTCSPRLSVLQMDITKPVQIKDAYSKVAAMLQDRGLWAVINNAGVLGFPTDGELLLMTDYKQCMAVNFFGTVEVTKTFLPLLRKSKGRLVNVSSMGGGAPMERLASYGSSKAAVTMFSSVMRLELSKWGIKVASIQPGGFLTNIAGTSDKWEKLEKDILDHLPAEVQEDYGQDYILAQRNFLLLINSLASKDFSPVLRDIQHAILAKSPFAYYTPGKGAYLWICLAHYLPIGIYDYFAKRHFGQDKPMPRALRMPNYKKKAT

Row | Structure (SMILES) | IC50 [nM]
6 | O=C(c1ccc(-c2ccncc2)s1)c1c(F)ccc(O)c1F | 39
7 | O=C(c1ccc(-c2cccnc2)s1)c1c(F)ccc(O)c1F | 47

The remaining lines, values ahead:

Row | IC50 [nM] | Structure (SMILES)
8 | 85 | NS(=O)(=O)c1ccc(-c2ccc(C(=O)c3c(F)ccc(O)c3F)s2)cc1
9 | 180 | COc1ccc(-c2ccc(C(=O)c3c(F)ccc(O)c3F)s2)cc1S(=O)(=O)N1CCOCC1

The molecules below were run against T3, Estrogen receptor alpha (ERalpha) (Homo sapiens, UniProt P03372) (assay: Displacement of [3H]E2 from human recombinant ERalpha assessed as receptor binding at 3 uM after 16 to 20 hrs by liquid scintillation counting method relative to control). Conditions: probe [3H]E2, read-out: Activity.
T3 sequence (P03372 whole entry): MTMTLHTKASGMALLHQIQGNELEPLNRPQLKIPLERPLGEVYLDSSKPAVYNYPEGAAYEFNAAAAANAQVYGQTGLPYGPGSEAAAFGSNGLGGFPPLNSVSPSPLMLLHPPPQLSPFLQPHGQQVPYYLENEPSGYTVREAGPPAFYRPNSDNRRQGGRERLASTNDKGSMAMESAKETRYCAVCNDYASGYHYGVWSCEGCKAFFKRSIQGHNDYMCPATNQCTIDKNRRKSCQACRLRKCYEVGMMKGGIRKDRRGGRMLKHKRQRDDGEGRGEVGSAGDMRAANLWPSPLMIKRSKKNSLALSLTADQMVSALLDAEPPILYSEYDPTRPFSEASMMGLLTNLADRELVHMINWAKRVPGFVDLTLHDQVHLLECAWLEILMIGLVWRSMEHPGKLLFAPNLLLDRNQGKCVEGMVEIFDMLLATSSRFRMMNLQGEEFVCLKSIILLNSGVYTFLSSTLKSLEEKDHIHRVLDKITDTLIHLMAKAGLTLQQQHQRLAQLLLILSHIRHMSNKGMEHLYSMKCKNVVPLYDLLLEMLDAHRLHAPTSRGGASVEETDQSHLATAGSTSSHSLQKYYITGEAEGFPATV

Row | Structure (SMILES) | activity at 3 µM [%]
10 | COc1c(C)cc(-c2ccc(C(=O)c3c(F)ccc(O)c3F)s2)cc1C | 51
11 | N#Cc1cc(-c2ccc(C(=O)c3c(F)ccc(O)c3F)s2)ccc1O | 44
12 | O=C(c1ccc(-c2cc(Cl)c(O)c(Cl)c2)s1)c1c(F)ccc(O)c1F | 37
13 | Cc1cc(-c2ccc(C(=O)c3c(F)ccc(O)c3F)s2)cc(C)c1O | 17

Results, then the molecule that gave them:

Row | activity at 3 µM [%] | Structure (SMILES)
14 | 73 | O=C(c1ccc(-c2ccc(O)c(Cl)c2)s1)c1c(F)ccc(O)c1F
15 | 0 | COc1ccc(-c2ccc(C(=O)c3c(F)ccc(O)c3F)s2)cc1S(=O)(=O)N1CCOCC1

The molecules below were run against Estrogen receptor beta (ERbeta) (Homo sapiens, UniProt Q92731) (assay: Displacement of [3H]E2 from human recombinant ERbeta assessed as receptor binding at 10 uM after 16 to 20 hrs by liquid scintillation counting method relative to control). Conditions: probe [3H]E2, read-out: Activity.
Estrogen receptor beta (ERbeta), sequence (Q92731 whole entry): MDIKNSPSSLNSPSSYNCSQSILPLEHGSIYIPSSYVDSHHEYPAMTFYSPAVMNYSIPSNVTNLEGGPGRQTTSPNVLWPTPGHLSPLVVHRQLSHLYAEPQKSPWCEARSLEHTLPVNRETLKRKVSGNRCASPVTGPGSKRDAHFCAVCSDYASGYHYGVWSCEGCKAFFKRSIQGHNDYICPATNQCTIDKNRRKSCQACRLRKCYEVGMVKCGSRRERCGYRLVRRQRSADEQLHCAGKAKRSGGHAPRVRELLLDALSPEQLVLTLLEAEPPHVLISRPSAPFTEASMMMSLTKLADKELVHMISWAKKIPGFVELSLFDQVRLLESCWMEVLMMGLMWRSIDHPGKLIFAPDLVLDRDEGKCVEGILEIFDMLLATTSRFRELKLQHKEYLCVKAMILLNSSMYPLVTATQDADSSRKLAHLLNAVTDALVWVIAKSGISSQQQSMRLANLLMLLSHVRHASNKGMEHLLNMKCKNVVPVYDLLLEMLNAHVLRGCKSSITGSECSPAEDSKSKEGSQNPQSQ

Row | Structure (SMILES) | activity at 10 µM [%]
16 | COc1c(C)cc(-c2ccc(C(=O)c3c(F)ccc(O)c3F)s2)cc1C | 69
17 | N#Cc1cc(-c2ccc(C(=O)c3c(F)ccc(O)c3F)s2)ccc1O | 6
18 | O=C(c1ccc(-c2cc(Cl)c(O)c(Cl)c2)s1)c1c(F)ccc(O)c1F | 11
19 | Cc1cc(-c2ccc(C(=O)c3c(F)ccc(O)c3F)s2)cc(C)c1O | 22

The remaining lines, values ahead:

Row | activity at 10 µM [%] | Structure (SMILES)
20 | 55 | O=C(c1ccc(-c2ccc(O)c(Cl)c2)s1)c1c(F)ccc(O)c1F
21 | 4 | COc1ccc(-c2ccc(C(=O)c3c(F)ccc(O)c3F)s2)cc1S(=O)(=O)N1CCOCC1
